Data published in patent US20220056019A1, “FARNESOID X RECEPTOR AGONISTS AND USES THEREOF” (Metacrine, Inc., priority 2018, published 2022).

Target: T1, hFXR (Homo sapiens, UniProt Q96RI1)
T1 construct: expressed in transfected cells; host or cells: CV-1 cells
T1 sequence (Q96RI1 1-486): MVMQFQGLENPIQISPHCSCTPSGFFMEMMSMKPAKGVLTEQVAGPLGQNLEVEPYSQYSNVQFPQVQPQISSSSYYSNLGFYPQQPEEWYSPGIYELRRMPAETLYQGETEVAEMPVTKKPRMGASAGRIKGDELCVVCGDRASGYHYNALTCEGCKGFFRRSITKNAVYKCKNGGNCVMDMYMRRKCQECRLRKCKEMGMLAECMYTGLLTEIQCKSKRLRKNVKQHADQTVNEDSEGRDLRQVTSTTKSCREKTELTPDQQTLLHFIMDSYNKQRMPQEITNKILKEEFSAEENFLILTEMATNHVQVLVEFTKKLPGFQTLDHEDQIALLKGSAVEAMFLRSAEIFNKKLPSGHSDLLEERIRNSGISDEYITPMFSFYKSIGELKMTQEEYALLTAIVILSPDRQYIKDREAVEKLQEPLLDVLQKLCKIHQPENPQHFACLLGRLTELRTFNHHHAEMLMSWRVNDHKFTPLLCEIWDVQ
T1 sequence (P19793 1-462 partner): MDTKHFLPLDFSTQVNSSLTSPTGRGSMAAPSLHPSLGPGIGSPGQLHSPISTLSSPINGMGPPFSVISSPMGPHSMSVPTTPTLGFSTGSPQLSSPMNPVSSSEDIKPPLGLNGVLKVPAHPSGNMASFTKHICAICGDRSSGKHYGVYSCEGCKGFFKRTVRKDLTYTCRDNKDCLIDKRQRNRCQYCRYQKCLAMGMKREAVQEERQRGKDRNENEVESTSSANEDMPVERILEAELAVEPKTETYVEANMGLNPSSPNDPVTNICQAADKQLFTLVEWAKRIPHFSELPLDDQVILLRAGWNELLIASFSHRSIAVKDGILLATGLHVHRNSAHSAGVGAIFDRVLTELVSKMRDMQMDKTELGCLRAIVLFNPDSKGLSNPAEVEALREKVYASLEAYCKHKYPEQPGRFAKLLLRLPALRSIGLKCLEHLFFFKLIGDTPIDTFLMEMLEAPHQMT
Assay: In Vitro FXR Assay (TK): TK-ECRE-luc reporter in transfected CV-1 cells
Assay type: cell-based
Conditions: 18 hrs incubation, luminescence
Outline: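 CV-1, DMEM/10% charcoal-stripped FBS, 37 °C 5% CO2. Transfection O/N: hFXR + hRXR + TK-ECRE-luc + pCMX-YFP. Cpds (DMSO serial dil.) 18 h; lyse, read luminescence.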

| Structure (SMILES) | EC50 |
| --- | --- |
| COc1ccc(C23CCC(CN(c4cc(-c5cnn(C(C)C)c5)c(F)cn4)C(=O)[C@H]4CC[C@H](OC(=O)N5CC(O)C5)CC4)(CC2)CC3)cc1C [Compound 26.02, 4-((5-Fluoro-4-(1-isopropyl-1H-pyrazol-4-yl)pyridin-2-yl)((4-(4-methoxy-3-methylphenyl)bicyclo[2.2.2]octan-1-yl)methyl)carbamoyl)(trans-cyclohexyl) 3-hydroxyazetidine-1-carboxylate] | ≤ 0.05 µM |
| COc1ccc(C23CCC(CN(c4cc(-c5cnn(C(C)C)c5)ccn4)C(=O)[C@H]4CC[C@H](OC(=O)N5CC(N(C)C)C5)CC4)(CC2)CC3)cc1C [Compound 4.12, 4-((4-(1-Isopropyl-1H-pyrazol-4-yl)pyridin-2-yl)((4-(4-methoxy-3-methylphenyl)bicyclo [2.2.2]octan-1-yl)methyl)carbamoyl)cyclohexyl 3-(dimethylamino) azetidine-trans-1-carboxylate] | ≤ 0.05 µM |
| COc1ccc([C@H]2CC[C@H](CN(c3cc(-c4cnn(C(C)C)c4)ccn3)C(=O)[C@H]3CC[C@H](OC(=O)NCC(C)(F)F)CC3)CC2)cc1C [Compound 2.31, trans-4-((4-(1-Isopropyl-1H-pyrazol-4-yl)pyridin-2-yl)(((trans)-4-(4-methoxy-3-methylphenyl)cyclohexyl)methyl)carbamoyl) cyclohexyl(2,2-difluoropropyl)carbamate] | ≤ 0.05 µM |
| COc1ccc([C@H]2CC[C@H](CN(c3cc(-c4cnn(C(C)C)c4)ccn3)C(=O)[C@H]3CC[C@H](OC(=O)N4CCN(C)CC4)CC3)CC2)cc1C [Compound 2.14, trans-4-((4-(1-Isopropyl-1H-pyrazol-4-yl)pyridin-2-yl)(((trans)-4-(4-methoxy-3-methylphenyl)cyclohexyl)methyl)carbamoyl) cyclohexyl4-methylpiperazine-1-carboxylate] | ≤ 0.05 µM |

Second part, the compound after the results:

| EC50 | Structure (SMILES) |
| --- | --- |
| ≤ 0.05 µM | COc1ccc([C@H]2CC[C@H](CN(c3cccc(-c4cnn(C(C)C)c4)c3)C(=O)[C@H]3CC[C@H](OC(=O)NCC(F)(F)CO)CC3)CC2)cc1C [Compound 5.02, trans-4-((3-(1-Isopropyl-1H-pyrazol-4-yl)phenyl)(((trans)-4-(4-methoxy-3-methylphenyl)cyclohexyl)methyl)carbamoyl)cyclohexyl (2,2-difluoro-3-hydroxypropyl)carbamate] |
| ≤ 0.05 µM | COc1ccc(C23CCC(CN(c4cccc(-c5cnn(C(C)C)c5)c4)C(=O)[C@H]4CC[C@H](OC(=O)N5CC(O)C5)CC4)(CC2)CC3)cc1C [Compound 25.02, 4-((3-(1-Isopropyl-1H-pyrazol-4-yl)phenyl)((4-(4-methoxy-3-methylphenyl)bicyclo[2.2.2]octan-1-yl)methyl)carbamoyl)cyclohexyl trans-3-hydroxyazetidine-1-carboxylate] |
| ≤ 0.05 µM | COc1ccc(C23CCC(CN(c4cc(-c5cnc(C(C)C)s5)ccn4)C(=O)[C@H]4CC[C@H](NC(=O)CO)CC4)(CC2)CC3)cc1C [Compound 9, (trans)-4-(2-Hydroxyacetamido)-N-(4-(2-isopropylthiazol-5-yl)pyridin-2-yl)-N-((4-(4-methoxy-3-methylphenyl)bicyclo[2.2.2]octan-1-yl)methyl)cyclohexanecarboxamide] |
| ≤ 0.05 µM | CCOC(=O)N[C@H]1CC[C@H](C(=O)N(CC23CCC(c4ccc(OC)c(C)c4)(CC2)CC3)c2cc(-c3cnn(C(C)C)c3)ccn2)CC1 [Compound 8.01, (trans)-Ethyl (4-((4-(1-isopropyl-1H-pyrazol-4-yl)pyridin-2-yl)((4-(4-methoxy-3-methylphenyl)bicyclo[2.2.2]octan-1-yl)methyl)carbamoyl)cyclohexyl)car-bamate] |
| ≤ 0.05 µM | COc1ncc([C@H]2CC[C@H](CN(c3cc(-c4cnn(C(C)C)c4)ccn3)C(=O)[C@H]3CC[C@H](OC(=O)N4CCN(C)CC4)CC3)CC2)cc1Cl [Compound 1.09, trans-4-((((trans)-4-(5-Chloro-6-methoxypyridin-3-yl)cyclohexyl)methyl)(4-(1-isopropyl-1H-pyrazol-4-yl)pyridin-2-yl)carbamoyl)cyclohexyl 4-methylpiperazine-1-carboxylate] |
